Assay results reported in US20040106687A1, “Carotenoids as anti-hypertension agents” (priority 2001, published 2004).

System: healthy young individuals
Assay: Double-blind, placebo-controlled crossover study of lycopene consumption, heart rate and blood pressure measured
Type: in vivo, human
Experimental: A double-blind, placebo-controlled crossover study of lycopene consumption in 16 healthy young individuals. Each subject was studied at baseline and then given 15 mg lycopene or placebo for two weeks and re-evaluated. A one-month lycopene administration free washout period followed, another lycopene administration was administered prior to a final evaluation. Each evaluation included measures among other parameters also heart rate and blood pressure. […]

[1] = 16 healthy young individuals, 15 mg lycopene for two weeks

CC(C)=CCC/C(C)=C/C=C/C(C)=C/C=C/C(C)=C/C=C/C=C(C)/C=C/C=C(C)/C=C/C=C(\C)CCC=C(C)C [Lycopene, lycopene]
Diastolic Blood Pressure [1]: 66 ± 2 mmHg | Systolic Blood Pressure [1]: 114 ± 2 mmHg | Change in diastolic blood pressure as compared to placebo administration (during lycopene administration, 15 mg for two weeks, p<0.05): significant reduction
